Columns and labels:
johnsongrass = assay: Test C postemergence; type: in vivo, Sorghum halepense; settings: for Johnsongrass plant response rating / Plant response rating, Johnsongrass: scale 0 to 100 (0 no effect, 100 complete control)
How it was run: (§1)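 Greenhouse herbicide screen. Pre: seeded loam/sand, sprayed at planting. Post: 1–4 leaf plants (2–18 cm) in peat-based mix. Formulation: solvent mixture + surfactant, non-phytotoxic. Readout: visual % control vs untreated, 13–15 d; dash = not tested.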

blackgrass [1] = assay: Test C postemergence; type: in vivo, Alopecurus myosuroides; settings: for Blackgrass plant response rating / Plant response rating, Blackgrass: scale 0 to 100 (0 no effect, 100 complete control)
How it was run: as §1

blackgrass [2] = assay: Test C preemergence; type: in vivo, Alopecurus myosuroides; settings: for Blackgrass plant response rating: preemergence; for Plant response rating, Blackgrass: Preemergence, 31 g ai/ha, scale 0 to 100, 0 no effect, 100 complete control
How it was run: as §1

Italian ryegrass = assay: Test C preemergence; type: in vivo, Lolium multiflorum; settings: for Ryegrass, Italian plant response rating: preemergence; for Plant response rating, Ryegrass, Italian: Preemergence, 31 g ai/ha, scale 0 to 100, 0 no effect, 100 complete control
How it was run: as §1

wild oat = assay: Test C postemergence; type: in vivo, Avena fatua; settings: for Plant response rating, Oat, Wild: scale 0 to 100 (0 no effect, 100 complete control)
How it was run: as §1

large (Lg) crabgrass = assay: Test C preemergence; type: in vivo, Digitaria sanguinalis; settings: for Crabgrass, Large plant response rating: preemergence; for Plant response rating, Crabgrass, Large: Preemergence, 31 g ai/ha, scale 0 to 100, 0 no effect, 100 complete control
How it was run: as §1

Heteranthera limosa = assay: Test B flooded paddy test; type: in vivo; settings: Flood, 250 g ai/ha; 0 to 100 scale where 0 is no effect and 100 is complete control
How it was run: (§2)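 Visual ratings on a 0 to 100 scale, where 100 means complete control, compared treated plants with controls after 13 to 15 days in a greenhouse. Treatment went into paddy water 3 cm deep over the soil, applied to plants at the 2-leaf stage.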

barnyardgrass [3] = assay: Test B flooded paddy test; type: in vivo, Echinochloa crus-galli; settings: Flood, 250 g ai/ha; 0 to 100 scale where 0 is no effect and 100 is complete control
How it was run: as §2

wheat = assay: Test A postemergence; type: in vivo, Triticum aestivum; settings: 0 to 100 scale where 0 is no effect and 100 is complete control
How it was run: (§3)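 Scoring: eye-based comparison with untreated controls, 0 for no effect through 100 for complete control, at about day 10. Treatments: directed soil spray preemergence; foliar spray postemergence on 2–10 cm plants at the one- to two-leaf stage. Medium: loam soil with sand.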

barnyardgrass [4] = assay: Test A preemergence; type: in vivo, Echinochloa crus-galli; settings: for Plant response rating, Barnyardgrass: 125 g ai/ha; for Barnyardgrass plant response rating: 500 g ai/ha
How it was run: as §3

wheat, winter = assay: Test C preemergence; type: in vivo, Triticum aestivum; settings: for Wheat plant response rating: preemergence; for Plant response rating, Wheat: Preemergence, 31 g ai/ha, scale 0 to 100, 0 no effect, 100 complete control
How it was run: as §1

[5] = 16 g ai/ha, postemergence, visual rating, 13 to 15 days
[6] = Postemergence, 31 g ai/ha, 13 to 15 days
[7] = 16 g ai/ha, scale 0 to 100 (0 no effect, 100 complete control)
[8] = 62 g ai/ha, scale 0 (no effect) to 100 (complete control)
[9] = 125 g ai/ha, scale 0 (no effect) to 100 (complete control)
[10] = 0 to 100 scale where 0 is no effect and 100 is complete control
[11] = 0 to 100 scale, 0 no effect, 100 complete control, approx. 10 days
[12] = 16 g ai/ha, postemergence, 0 is no effect, 100 is complete control
[13] = 125 g ai/ha, postemergence, visual rating

Row | SMILES | Plant response rating, Johnsongrass (johnsongrass; Postemergence, 62 g ai/ha) | Plant response rating, Blackgrass (blackgrass [1]; [6]) | Plant response rating, Blackgrass (blackgrass [1]; Postemergence, 62 g ai/ha) | Blackgrass plant response rating (blackgrass [2]; [7]) | Blackgrass plant response rating (blackgrass [2]; [8]) | Blackgrass plant response rating (blackgrass [2]; [9]) | Plant response rating, Blackgrass (blackgrass [2]) | Ryegrass, Italian plant response rating (Italian ryegrass; [7]) | Ryegrass, Italian plant response rating (Italian ryegrass; [8]) | Ryegrass, Italian plant response rating (Italian ryegrass; [9]) | Plant response rating, Ryegrass, Italian (Italian ryegrass) | Plant response rating, Oat, Wild (wild oat; Postemergence, 62 g ai/ha) | Crabgrass, Large plant response rating (large (Lg) crabgrass; [7]) | Crabgrass, Large plant response rating (large (Lg) crabgrass; [8]) | Crabgrass, Large plant response rating (large (Lg) crabgrass; [9]) | Plant response rating, Crabgrass, Large (large (Lg) crabgrass) | Plant response rating, Ducksalad (Heteranthera limosa) | Plant response rating, Barnyardgrass (barnyardgrass [3]) | Plant response rating, Wheat (wheat; 500 g ai/ha) | Plant response rating, Barnyardgrass (barnyardgrass [4]; [10]) | further results
1 | CCOc1cn(-c2c(Br)cccc2Oc2ncc(Cl)cn2)nn1 [Compound 84] | 0 | 5 | 5 | 0 | 40 | 85 | 5 | 0 | 5 | 5 | 5 | 5 | 45 | 100 | 100 | 98 | 50 | 0 | 80 | 50 | Johnsongrass plant response rating (johnsongrass; [5]): 0; Plant response rating (0 to 100), Johnsongrass (johnsongrass; 125 g ai/ha, postemergence): 0; Plant response rating, Johnsongrass (johnsongrass; [6]): 0; Blackgrass plant response rating (blackgrass [1]; [5]): 5; Plant response rating (0 to 100), Blackgrass (blackgrass [1]; 125 g ai/ha, postemergence): 20; Plant response rating (0 to 100), Oat, Wild (wild oat; 125 g ai/ha, postemergence): 15; Plant response rating, Oat, Wild (wild oat; [6]): 0; Plant response rating, Wheat (wheat; 125 g ai/ha): 30; Barnyardgrass plant response rating (barnyardgrass [4]; [11]): 90; Wheat plant response rating (wheat, winter; [7]): 0; Wheat plant response rating (wheat, winter; [8]): 0; Wheat plant response rating (wheat, winter; [9]): 0; Plant response rating, Wheat (wheat, winter): 0
2 | N#Cc1cccc(Oc2ncc(F)cn2)c1-n1cc(I)cn1 [Compound 86] | 5 | 5 | 5 | 0 | 90 | 98 | 20 | 0 | 30 | 35 | 0 | 5 | 85 | 100 | 100 | 100 | 75 | 0 | 90 | 80 | Johnsongrass plant response rating (johnsongrass; [5]): 0; Plant response rating (0 to 100), Johnsongrass (johnsongrass; 125 g ai/ha, postemergence): 5; Plant response rating, Johnsongrass (johnsongrass; [6]): 5; Blackgrass plant response rating (blackgrass [1]; [5]): 5; Plant response rating (0 to 100), Blackgrass (blackgrass [1]; 125 g ai/ha, postemergence): 10; Plant response rating (0 to 100), Oat, Wild (wild oat; 125 g ai/ha, postemergence): 10; Plant response rating, Oat, Wild (wild oat; [6]): 0; Plant response rating, Wheat (wheat; 125 g ai/ha): 50; Barnyardgrass plant response rating (barnyardgrass [4]; [11]): 100; Wheat plant response rating (wheat, winter; [7]): 0; Wheat plant response rating (wheat, winter; [8]): 0; Wheat plant response rating (wheat, winter; [9]): 35; Plant response rating, Wheat (wheat, winter): 0
3 | N#Cc1cccc(Oc2ncc(Br)cn2)c1-n1cc(I)cn1 [Compound 88] | 5 | 10 | 10 | 0 | 60 | 90 | 5 | 0 | 0 | 5 | 0 | 10 | 45 | 100 | 100 | 70 | 25 | 0 | 50 | 60 | Johnsongrass plant response rating (johnsongrass; [5]): 0; Plant response rating (0 to 100), Johnsongrass (johnsongrass; 125 g ai/ha, postemergence): 10; Plant response rating, Johnsongrass (johnsongrass; [6]): 0; Blackgrass plant response rating (blackgrass [1]; [5]): 5; Plant response rating (0 to 100), Blackgrass (blackgrass [1]; 125 g ai/ha, postemergence): 10; Plant response rating (0 to 100), Oat, Wild (wild oat; 125 g ai/ha, postemergence): 10; Plant response rating, Oat, Wild (wild oat; [6]): 5; Plant response rating, Wheat (wheat; 125 g ai/ha): 0; Barnyardgrass plant response rating (barnyardgrass [4]; [11]): 80; Wheat plant response rating (wheat, winter; [7]): 0; Wheat plant response rating (wheat, winter; [8]): 0; Wheat plant response rating (wheat, winter; [9]): 5; Plant response rating, Wheat (wheat, winter): 0
4 | CCOc1cnn(-c2c(C#N)cccc2Oc2ncc(F)cn2)c1 [Compound 89] | 5 | 0 | 5 | 0 | 5 | 50 | 0 | 0 | 45 | 50 | 5 | 5 | 80 | 100 | 100 | 100 | 95 | 10 | 70 | 60 | Johnsongrass plant response rating (johnsongrass; [5]): 0; Plant response rating (0 to 100), Johnsongrass (johnsongrass; 125 g ai/ha, postemergence): 5; Plant response rating, Johnsongrass (johnsongrass; [6]): 5; Blackgrass plant response rating (blackgrass [1]; [5]): 0; Plant response rating (0 to 100), Blackgrass (blackgrass [1]; 125 g ai/ha, postemergence): 5; Plant response rating (0 to 100), Oat, Wild (wild oat; 125 g ai/ha, postemergence): 15; Plant response rating, Oat, Wild (wild oat; [6]): 5; Plant response rating, Wheat (wheat; 125 g ai/ha): 20; Barnyardgrass plant response rating (barnyardgrass [4]; [11]): 90; Wheat plant response rating (wheat, winter; [7]): 0; Wheat plant response rating (wheat, winter; [8]): 0; Wheat plant response rating (wheat, winter; [9]): 5; Plant response rating, Wheat (wheat, winter): 0
5 | Clc1cnc(Oc2cccc(Br)c2-n2cc(Br)nn2)nc1 [Compound 129] | 5 | 5 | 5 | 0 | 5 | 90 | 50 | 0 | 10 | 35 | 0 | 15 | 75 | 100 | 100 | 95 | 65 | 0 | 70 | 70 | Plant response rating (0 to 100), Johnsongrass (johnsongrass; [12]): 5; Plant response rating, Johnsongrass (johnsongrass; [13]): 5; Plant response rating (0 to 100), Blackgrass (blackgrass [1]; [12]): 5; Plant response rating, Blackgrass (blackgrass [1]; [13]): 10; Plant response rating (0 to 100), Oat, Wild (wild oat; [12]): 0; Plant response rating, Oat, Wild (wild oat; [13]): 10; Wheat plant response rating (wheat; 125 g ai/ha): 0; Barnyardgrass plant response rating (barnyardgrass [4]; [10]): 90; Wheat plant response rating (wheat, winter; [7]): 0; Wheat plant response rating (wheat, winter; [8]): 0; Wheat plant response rating (wheat, winter; [9]): 15; Plant response rating, Wheat (wheat, winter): 0
